Consider one molecule from patent publication US20240366649A1, “4-ETHYNYL-3-HYDROXY-TETRAHYDROFURANYL-ADENINE PHOSPHORAMIDATES AND RELATED COMPOUNDS AND THEIR USE IN TREATING MEDICAL CONDITIONS” (ROME THERAPEUTICS, INC., priority 2021, published 2024).

Test [1] relates to Esophageal cancer TE-1 cells. Description: Cancer cell viability assay with 3D cell colonies (CellTiter-Glo), TE-1. Format: cell-based. Conditions: Homo sapiens, 168 h; TE-1, 3D methylcellulose colonies, 7 days. The method, then: Cancer cell lines were cultured in the following media: • Ovarian cancer OVCAR-8 cells—RPMI media containing 10% FBS • Ovarian cancer SK-OV-3 cells—McCoy's 5a media containing 10% FBS • Ovarian cancer SW756 cells—L-15 (100% air)+10% FBS • Esophageal cancer TE-1 cells—RPMI-1640+10% FBS • Esophageal cancer KYSE-410 cells—RPMI-1640+5˜10% FBS • Esophageal cancer KYSE-70 cells—RPMI-1640+10% h.i.FBS. • Pharyngeal cancer FaDu cells—MEM+0.01 mM NEAA+10% FBS
Cell colony formation was tested using a 3D methylcellulose-based CellTiter-Glo (CTG) viability assay (Cat. No: G7573, Promega). Briefly, cells were inoculated into 96-well plates (at 1,500 cells per well) into a solution of 0.65% methylcellulose in growth media and incubated overnight at 37° C. in 5% CO2. The next day, serially diluted test compound (islatravir, 4′-ethynyl-2-fluoro-2′-deoxyadenosine) or positive control (cisplatin, Cat. No. 6J015A89, Qilu Pharma) were added at the indicated concentrations, and the cells were incubated for 7 days. On day seven, 100 μL of CTG reagent was added, and the plates were incubated at room temperature for 20 min. Luminescence was read on an Envision Multi Label Reader according to manufacturer's instructions. IC50 values were determined using the following calculation: […]

For test [2], the system named is interferon-stimulated gene (ISG) expression. Description: In vivo decitabine challenge model. On the set-up: species or system C57BL/6 mice. The following applies: mice; decitabine i.p. 5 mg/kg and islatravir p.o. 0.6-6.0 mg/kg once a day Day 0 to Day 4; IFIT2 v. GAPDH. The method, then: Twenty 9-11 week old C57BL/6 mice were acclimated to the lab for at least 5 days. Islatravir (4′-ethynyl-2-fluoro-2′-deoxyadenosine) was prepared in a 0.5% methylcellulose solution for p.o. administration. Decitabine (Sigma) was dissolved in sterile PBS (pH 7.4) and dosed within 30 minutes of preparation of the solution. Doses of both islatravir and decitabine were administered once a day, every day from Day 0 to Day 4.
On Day 0, mice were split into four groups of five mice and given their first dose of decitabine (i.p., 5 mg/kg) and […]. Dosing groups were:
Decitabine and islatravir were administered daily from Day 0 to Day 4. All mice were euthanized 1 hour after the last dose administration on Day 4. Spleens, liver, and terminal colon were collected, along with plasma from each animal. The fold changes in interferon-stimulated gene (ISG) expression was calculated by first normalizing to GAPDH gene using the Delta CT method. The CT (gene of interest)−CT (reference gene) was calculated to generate a delta CT for all samples. The fold change was then calculated by taking the […](Delta CT(control)−Delta CT (experimental). The control in this example was the PBS control animal group. The Taqman duplex assay (Thermo Fisher 4331182 and 4448489) was used according to the manufacturer's instructions to determine levels of GAPDH v. IFIT2.

The subject of test [3] is IFN-β production in PBMCs. Description: Decitabine-stimulated human PBMC assay. Type of test: cell-based. Conditions: anti-CD3/anti-CD28, 10 μM decitabine, 5 days. The method, then:
EasySep buffer (32 mL, Stem Cell, cat. #20144) was used to dilute 8 mL of LRSC buffy coat (from fresh Leukopak) with gentle mixing. The diluted buffy coat (20 mL) was transferred into each of two SepMate 50 tubes, and the tubes were filled with 15 mL of Lyphoprep (Stem Cell, ct. #07851) density gradient. The SepMate tubes were then centrifuged at 1200G for 10 minutes at room temperature with the brake on. The top layer of supernatant was collected in SepMate tubes by quickly pouring it into a new 50 mL conical tube. The PBMCs were washed with EasySep buffer ×2 by centrifuging at 300G for 5 minutes. The cells were resuspended in 30 mL of EasySep and centrifuged at 100G for 5 minutes with the brake off, and the platelets were removed. The cells were then resuspended in 6 mL of 1×RBC lysis buffer (InvitroGen) and incubated at 37° C. for 5 minutes. Then, 25 mL of EasySep buffer was mixed into the tube and it was centrifuged at 300G for 5 minutes. The cells were resuspended in 10 mL of EasySep buffer and the cells were then counted with Cellometer (AO/PI). The PBMCs were resuspended in RPMI1640 (ThermoFisher)+10% FBS (HyClone)+p/s at 3×10^6/mL. The PBMCs (100 μL, 300 k PBMCs) were then seeded in a 96-well flat bottom microplate (Corning) that had been precoated with 100 μL of anti-CD3 antibody (10 μg/mL in PBS, Biolegend) or PBS at 4° C., one day before the assay was commenced. […]

By IC50 is commonly meant the concentration needed to halve the response being measured. High values mean weaker potency, low ones greater potency.

Where only a bound is given, the exact number is not on record here.

With `C#C[C@]1(CO)O[C@@H](n2cnc3c(N)nc(F)nc32)C[C@@H]1O` [islatravir, 4′-ethynyl-2-fluoro-2′-deoxyadenosine], the IC50 in test [1] is ≤ 10 µM. Also, in test [2], the “interferon-stimulated gene (ISG) response” value is on record as “showed the change in ISG response”. Further, the “production of IFN-β” value in test [3] was “activated production of IFN-β”.
